Here are results for three molecules from patent US7250295B2 (Board of Trustees of Michigan State University, priority 1999, dated 2007).

For data set [1], the system named is mAB 6F5. Briefly: Binding of nivalenol to mAB 6F5. Also noted: species or system mouse.
The test system of data set [2] is mAB 6F5. The class given is binding, mouse. As to conditions: read-out: 50% inhibitory concentration.
For data set [3], the system named is antibody obtained from C430-BSA-immunized mice. Briefly: CI-ELISA: antisera of C430-BSA-immunized mice on immobilized DONPEP.2 phage. The class given is binding. On the procedure: The strips were washed and blocked as described for the CD-ELISA. Various concentrations of DON (0 to 10,000 ηg/ml in 1% methanol-PBS), 50 μl/well, was added to the wells, and then 50 μl of anti-DON mAB 6F5 (10 μg/ml in 10% milk-PBS) was added to each well. The wells were incubated at 37° C. for 1 hour. Then the wells were washed six times with PBS-T, and the amounts of bound anti-DON mAB 6F5 were determined by incubation with goat anti-mouse IgG-HRP conjugate (diluted 1:2,000 with 10% milk-PBS) at 37° C. for 1 hour. The amounts of bound enzyme were determined as described above.
Synthetic peptide C430 was conjugated to BSA with a m-maleimidobenzoyl-N-hydroxysulfosuccinimide ester (sulfo-MBS) cross-linker. The C430-BSA conjugate, at a molar ratio of peptide C430 to the carrier protein BSA of about 29:1, was used to inject 7-week-old BALB/c female mice intraperitoneally or 6-month-old New Zealand white rabbits subcutaneously. The initial injections used for the mice contained 100 to 200 μg of C430-BSA conjugate in 200 μl of saline-Freund's complete adjuvant (1:1). These injections were followed at 3-week intervals by booster injections consisting of 100 to 200 μg of conjugate in 200 μl of saline-Freund's incomplete adjuvant (1:1). […]
On the technique in general: In an ELISA, binding on a coated surface is turned into a signal by an enzyme label.

Data set [4] relates to protein synthesis in vitro with rabbit reticulocyte lysate. Format: biochemical.
Data set [5] relates to mouse bone marrow cells.

As to `CC1=C[C@H]2O[C@@H]3[C@H](O)[C@@H](O)[C@](C)([C@@]2(CO)[C@H](O)C1=O)[C@]31CO1` [Nivalenol, nivalenol], in data set [1], the “affinity for mAB 6F5 relative to DON” value is given as “slightly less affinity than DON”.

Consider `CC1=C[C@H]2O[C@@H]3[C@H](O)C[C@](C)([C@@]2(CO)[C@H](O)C1=O)[C@]31CO1` [DON, 12,13-epoxy-3,7,15-trichothec-9-en-8-one, reference compound], for which the IC50 in data set [2] turned out to be 3.4 µM. The “inhibition of antisera binding to immobilized phage-displayed peptide” value in data set [3] (free competitor in solution) is on record as “not inhibited by free DON”. Moreover, the “effect on new protein synthesis” value in data set [4] is reported as “significantly inhibited new protein synthesis”. The cell death in data set [5] (B6C3F1, mouse) is given as 40-60%.

For “H-SWGPFPFGGGSC-OH [C430, NH2-SWGPFPFGGGSC-COOH]”, in data set [3] (antiserum after the fourth injection of C430-BSA, FIG. 6, read-out: concentration giving 50% inhibition of antiserum binding to immobilized phage-displayed peptide), the IC50 was found to be 0.39 µM. In data set [4], the “effect on new protein synthesis” value was “had no such inhibitory effect” and the “new protein synthesis with DON mixed with equimolar C430” value is on record as “new protein synthesis was not inhibited”. Also, in data set [5], the “effect on cell viability when combined with DON” value is listed as “did not significantly increase or decrease the cell viability caused by DON” and the “effect on viability of bone marrow cells” value is “did not have any adverse effect on the viability”.
